Experimental data published in patent US20040102633A1, “Novel compounds” (priority 2000, published 2004).
Structures can show the parent of a compound that is named as a salt.

In the case of CC[C@H](NC(=O)c1c(CN2CCC(N3CCCCC3)CC2)c(-c2ccccc2)nc2cc(OCCO)ccc12)c1ccccc1 [Example 19, 3-[1,4′]Bipiperidinyl-1′-ylmethyl-7-(2-hydroxy-ethoxy)-2-phenyl-quinoline-4-carboxylic acid ((S)-1-phenyl-propyl)-amide], the melting point is reported as 118 to 122 °C.

C[C@H](NC(=O)c1c(CN2CCC(N3CCCCC3)CC2)c(-c2ccccc2)nc2cc(O)ccc12)c1ccccc1 [Example 18, 3-[1,4′]Bipiperidinyl-1′-ylmethyl-7-hydroxy-2-phenyl-quin line-4-carboxylic Acid ((S)-1-phenyl-ethyl)-amide] showed a melting point of 99.6 to 99.7 °C.

Molecule C[C@H](NC(=O)c1c(CN2CCC(N3CCCC(C(=O)O)C3)CC2)c(-c2ccccc2)nc2ccccc12)C1CCCCC1 (stereo partly drawn) [Example 14, 1′-[4-((S)-1-Cyclohexyl-ethylcarbamoyl)-2-phenyl-quinolin-3-ylmethyl]-[1,4′]bipiperidinyl-3-carboxylic Acid] has a melting point of 160 to 165 °C.

With C[C@H](NC(=O)c1c(CN2CCC(N3CCCC3=O)CC2)c(-c2ccccc2)nc2ccccc12)c1ccccc1 [Example 12, 3-[4-(2-Oxo-pyrrolidin-1-yl)-piperidin-1-ylmethyl]-2-phenyl-quinoline-4-carboxylic Acid ((S)-1-phenyl-ethyl)-amide] the melting point was 120 to 125 °C.

In the case of C[C@H](NC(=O)c1c(CN2CCC(N3CCCCC3)CC2)c(-c2ccccc2)nc2c(F)cccc12)C1CCCCC1 [Example 26, 3-[1,4′]Bipiperidinyl-1′-ylmethyl-8-fluoro-2-phenyl-quinoline-4-carboxylic Acid ((S)-1-cyclohexyl-ethyl)-amide], the melting point is reported as 113 °C.

For C[C@H](NC(=O)c1c(CN2CCC(N3CCCCC3)CC2)c(-c2ccccc2)nc2cc(O)ccc12)C1CCCCC1 [Example 15, 3-[1,4′]Bipiperidinyl-1′-ylmethyl-7-hydroxy-2-phenyl-quinoline-4-carboxylic Acid ((S)-1-cyclohexyl-ethyl)-amide], the melting point was 177.9 to 178 °C.

For C[C@H](NC(=O)c1c(CN2CCC(N)CC2)c(-c2ccccc2)nc2ccccc12)c1ccccc1 [Example 7, 3-(4-Amino-piperidin-1-ylmethyl)-2-phenyl-quinoline-4-carboxylic Acid ((S)-1-phenyl-ethyl)-amide], the melting point was 118 to 119 °C.

With CC[C@H](NC(=O)c1c(CN2CCC(N3CCCCC3)CC2)c(-c2ccccc2)nc2cc(OCC(N)=O)ccc12)c1ccccc1 (as salt: hydrochloride) [Example 20, 3-[1,4′]Bipiperidinyl-1′-ylmethyl-7-carbamoylmethoxy-2-phenyl-quinoline-4-carboxylic Acid ((S)-1-phenyl-propyl)-amide Dihydrochloride] the melting point was 218 to 220 °C.

Molecule COc1ccc2c(C(=O)N[C@H](c3ccccc3)C(C)C)c(CN3CCC(N4CCCCC4)CC3)c(-c3ccccc3)nc2c1 [Example 22, 3-[1,4′]Bipiperidinyl-1′-ylmethyl-7-methoxy-2-phenyl-quinoline-4-carboxylic Acid ((S)-2-methyl-1-phenyl-propyl)-amide] has a melting point of 113 to 116 °C.

Molecule C[C@H](NC(=O)c1c(CN2CCC(N)CC2)c(-c2ccccc2)nc2ccccc12)C1CCCCC1 [Example 6, 3-(4-Amino-piperidin-1-ylmethyl)-2-phenyl-quinoline-4-carboxylic Acid ((S)-1-cyclohexyl-ethyl)-amide] has a melting point of 140 to 145 °C.

Work on C[C@H](NC(=O)c1c(CN2CCC(N3CCCCC3)CC2)c(-c2ccccc2)nc2ccc(F)cc12)C1CCCCC1 [Example 28, 3-[1,4′]Bipiperidinyl-1′-ylmethyl-6-fluoro-2-phenyl-quinoline-4-carboxylic Acid ((S)-1-cyclohexyl-ethyl)-amide] yielded a melting point of 174 to 175 °C.

Molecule CCOC(=O)C1CCCN(C2CCN(Cc3c(-c4ccccc4)nc4ccccc4c3C(=O)N[C@@H](C)C3CCCCC3)CC2)C1 (stereo partly drawn) [Example 13, 1′-[4-((S)-1-Cyclohexyl-ethylcarbamoyl)-2-phenyl-quinolin-3-ylmethyl]-[1,4′]bipiperidinyl-3-carboxylic Acid Ethyl Ester] has a melting point of 104 to 105 °C.

Molecule C[C@H](NC(=O)c1c(CN2CCC(N3CCCCC3)CC2)c(-c2cccs2)nc2ccccc12)C1CCCCC1 [Example 27, 3-[1,4′]Bipiperidinyl-1-ylmethyl-2-thiophen-2-yl-quinoline-4-carboxylic Acid ((S)-1-cyclohexyl-ethyl)-amide] has a melting point of 165 to 166 °C.

Molecule C[C@H](NC(=O)c1c(CN2CCC(N3CCCCC3)CC2)c(-c2ccc(F)cc2)nc2ccccc12)C1CCCCC1 [Example 29, 3-[1,4′]Bipiperidinyl-1′-ylmethyl-2-(4-fluoro-phenyl)-quinoline-4-carboxylic Acid ((S)-1-cyclohexyl-ethyl)-amide] has a melting point of 151 to 153 °C.

For CC[C@H](NC(=O)c1c(CN2CCC(N3CCCCC3)CC2)c(-c2ccccc2)nc2cc(OCC(=O)O)ccc12)c1ccccc1 (as salt: hydrochloride) [Example 17, [3-[1,4′]Bipiperidinyl-1′-ylmethyl-2-phenyl-4((S)-1-phenyl-propylcarbamoyl)-quinolin-7-yloxy]-acetic Acid Dihydrochloride], the melting point was 196 °C (dec.).

C[C@H](NC(=O)c1c(CN2CCC(N3CCCCC3=O)CC2)c(-c2ccccc2)nc2ccccc12)c1ccccc1 [Example 11, 3-(2-Oxo-[1,4′]bipiperidinyl-1′-ylmethyl)-2-phenyl-quinoline-4-carboxylic Acid ((S)-1-phenyl-ethyl)-amide] gave a melting point of 124 to 125 °C.

With CCOC(=O)COc1ccc2c(C(=O)N[C@@H](CC)c3ccccc3)c(CN3CCC(N4CCCCC4)CC3)c(-c3ccccc3)nc2c1 [Example 16, [3-[1,4′]Bipiperidinyl-1′-ylmethyl-2-phenyl-4-((S)-1-phenyl-propylcarbamoyl)-quinolin-7-yloxy]-acetic Acid Ethyl Ester] the melting point was 101 to 104 °C.

C[C@H](NC(=O)c1c(CN2CCC(N3CCCCC3)CC2)c(-c2ccccc2)nc2cc(F)ccc12)C1CCCCC1 [Example 25, 3-[1,4′]Bipiperidinyl-1′-ylmethyl-7-fluoro-2-phenyl-quinoline-4-carboxylic Acid ((S)-1-cyclohexyl-ethyl)-amide] gave a melting point of 161 to 163 °C.

With CC(C)[C@H](NC(=O)c1c(CN2CCC(N3CCCCC3)CC2)c(-c2ccccc2)nc2cc(O)ccc12)c1ccccc1 [Example 21, 3-[1,4′]Bipiperidinyl-1′-ylmethyl-7-hydroxy-2-phenyl-quinoline-4-carboxylic Acid ((S)-2-methyl-1-phenyl-propyl)-amide] the melting point was 200 to 204 °C (dec.).

Molecule C[C@H](NC(=O)c1c(CN2CCC(N3CCCCC3)CC2)c(-c2ccc(C(F)(F)F)cc2)nc2ccccc12)C1CCCCC1 [Example 30, 3-[1,4′]Bipiperidinyl-1′-ylmethyl-2-(4-trifluoromethyl-phenyl) -quinoline-4-carboxylic Acid ((S)-1-cyclohexyl-ethyl)-amide] has a melting point of 138 to 140 °C.

Work on C[C@H](NC(=O)c1c(CN2CCC(N3CCCCC3)CC2)c(-c2ccccc2)nc2cc(Cl)ccc12)C1CCCCC1 [Example 24, 3-[1,4′]Bipiperidinyl-1′-ylmethyl-7-chloro-2-phenyl-quinoline-4-carboxylic acid ((S)-1-cyclohexyl-ethyl)-amide] yielded a melting point of 152 to 154 °C.
